In patent publication US12479827B2, “Heteroaromatic carboxamide derivatives as plasma kallikrein inhibitors” (Boehringer Ingelheim International GmbH, priority 2020, dated 2025):

Key:
Format in all cases: biochemical
[1] = target: T1, human TK1 (Homo sapiens, UniProt P06870); assay: Inhibition of TK1 (Ki); conditions: activated human TK1, substrate H-Pro-Phe-Arg-AMC, 24° C.
T1 construct: purchased R&D Systems
Method: The ability of compounds of formula (I) to inhibit plasma kallikrein (PKK), Factor XIIa (FXIIa), Factor XIa (FXIa), Factor Xa (FXa), Factor IIa (alpha-thrombin; FIIa), plasmin, trypsin, tissue kallikrein 1 (TK1), Factor VIIa (FVIIa), or FVIIa complexed with Tissue Factor, phospholipids and CaCl2 (FVIIa/TF/PL/CaCl2) is determined using the following biochemical assays in assay buffer (100 mM Tris, 150 mM NaCL, adjusted to a pH of 7.8 with HCl, and containing 0.1% (w/v) BSA and 0.05% (v/v) Tween20) in the presence of 1% (v/v) DMSO:
Prior to the assay, human TK1 (R&D Systems) is activated by incubation with human trypsin (Calbiochem) in a 1:10,000 ratio for 15 min at 37° C. For assaying TK1 inhibitory activity, activated TK1 (31.25 nM or 1 U/mL) is incubated at 24° C. with 0.1 mM fluorogenic substrate H-Pro-Phe-Arg-AMC (11295 from Bachem) and various concentrations of the test compound in assay buffer. Measurements are performed in a kinetic interval every 2nd minute for 16 min using a Spectramax M5 (Molecular Devices) with the following settings of the wavelength excitation of 350 nm and wavelength emission of 450 nm.
The pIC50 values are then fitted using a four-parametric fitting procedure using GraphPad Prism (version 6; GraphPad Software, Inc.). Respective Ki values are obtained by correction of the IC50 values for the respective KM value of the used substrate (see Table A for the obtained KM values of the used substrates) using the following formula:
[formula] Where the IC50 is in molar and the KM value in mM.

[2] = target: T2, PKK in kaolin activated human platelet poor plasma (Homo sapiens, UniProt P03952); assay: Inhibition of PKK in kaolin activated human PPP; conditions: 25-750 μg/mL kaolin, global fit, text b200 calls the values IC90;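 further: readout is the rate of fluorogenic substrate cleavage in rfu per min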
T2 construct: Platelet poor plasma (PPP) obtained from human wholeblood; from tissue
T2 sequence (P03952 391-638 limits assumed): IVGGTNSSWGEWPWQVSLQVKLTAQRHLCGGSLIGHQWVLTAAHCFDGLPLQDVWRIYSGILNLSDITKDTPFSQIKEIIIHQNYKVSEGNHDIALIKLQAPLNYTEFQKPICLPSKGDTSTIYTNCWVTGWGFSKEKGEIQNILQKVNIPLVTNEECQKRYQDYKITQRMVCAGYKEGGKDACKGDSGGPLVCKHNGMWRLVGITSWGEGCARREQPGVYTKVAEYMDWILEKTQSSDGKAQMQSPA
T2 sequence (P03952 20-390 limits assumed): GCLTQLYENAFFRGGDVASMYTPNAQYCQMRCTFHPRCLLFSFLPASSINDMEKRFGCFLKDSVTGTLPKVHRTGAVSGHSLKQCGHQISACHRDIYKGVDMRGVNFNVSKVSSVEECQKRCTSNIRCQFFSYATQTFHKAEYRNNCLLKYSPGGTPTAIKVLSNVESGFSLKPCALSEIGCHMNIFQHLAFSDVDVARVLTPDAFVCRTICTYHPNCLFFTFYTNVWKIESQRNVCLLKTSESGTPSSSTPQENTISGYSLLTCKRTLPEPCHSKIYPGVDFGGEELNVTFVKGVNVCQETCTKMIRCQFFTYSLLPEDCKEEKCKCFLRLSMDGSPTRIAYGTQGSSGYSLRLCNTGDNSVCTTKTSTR
Method: Platelet poor plasma (PPP) obtained from human wholeblood, anticoagulated with Na-Citrate, is incubated with various concentrations of the test compound together with either 25, 75, 250, or 750 μg/mL kaolin in assay buffer for 20 min at 37° C. such that for each kaolin dose used a concentration response is obtained for the test compound.

[3] = target: T3, Human PKK (Homo sapiens, UniProt P03952); assay: Inhibition of PKK using an endpoint assay (human PKK); conditions: fluorogenic substrate H-Pro-Phe-Arg-AMC, 1 h room temperature, method names human or rat PKK, table does not say which
T3 construct: purchased Enzyme Research Laboratories
T3 sequence (P03952 20-390 limits assumed): as above
T3 sequence (P03952 391-638 limits assumed): as the sequence (P03952 391-638 limits assumed) above
In short: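 Endpoint fluorescence (ex 355 nm, em 460 nm) after stopping with 1 μM final PPACK II. Buffer: Tris 100 mM pH 7.8, NaCl 150 mM, BSA 0.1%, Tween20 0.05%, with 1% DMSO present; enzyme is human plasma kallikrein.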

T1 sequence (P06870 25-262): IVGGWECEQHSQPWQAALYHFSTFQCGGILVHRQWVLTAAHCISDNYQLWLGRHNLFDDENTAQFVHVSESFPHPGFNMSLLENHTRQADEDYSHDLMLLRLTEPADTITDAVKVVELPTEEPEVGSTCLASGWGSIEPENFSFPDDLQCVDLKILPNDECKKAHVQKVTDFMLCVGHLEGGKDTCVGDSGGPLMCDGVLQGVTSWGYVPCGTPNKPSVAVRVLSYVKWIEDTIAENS

SMILES	Ki [1]	IC50 [2]	IC50 [3]
Cc1nc(N2CC3CC3C2)ccc1Cn1cnc(C(=O)N[C@@H]2CCc3c2ncn3C)c1 (stereo partly drawn) [Example 23, 1-[(6-{3-Azabicyclo[3.1.0]hexan-3-yl}-2-methylpyridin-3-yl)methyl]-N-[(4R)-1-methyl-1H,4H,5H,6H-cyclopenta[d]imidazol-4-yl]-1H-imidazole-4-carboxamide]	> 10 µM	233 nM	1.1 nM
Cc1nc(N2CC3C(C2)C3(F)F)ccc1Cn1cnc(C(=O)N[C@@H]2CCc3c2ncn3C)c1 (stereo partly drawn) [Example 24, 1-[(6-{6,6-Difluoro-3-azabicyclo[3.1.0]hexan-3-yl}-2-methylpyridin-3-yl)methyl]-N-[(4R)-1-methyl-1H,4H,5H,6H-cyclopenta[d]imidazol-4-yl]-1H-imidazole-4-carboxamide]	> 10 µM	181 nM	1 nM
COCc1nc(N2CC3CC3C2)ccc1Cn1cc(C(=O)N[C@@H]2CCc3c2ncn3C)cn1 (stereo partly drawn) [Example 49, 1-[(6-{3-Azabicyclo[3.1.0]hexan-3-yl}-2-(methoxymethyl)-pyridin-3-yl)methyl]-N-[(4R)-1-methyl-1H,4H,5H,6H-cyclopenta[d]imidazol-4-yl]-1H-pyrazole-4-carboxamide]	> 10 µM	254 nM	2.5 nM
CCc1nc(N2CC3(CC3)C2)ccc1Cn1cc(C(=O)N[C@@H]2CCc3c2ncn3C)cn1 [Example 51, 1-[(6-{5-Azaspiro[2.3]hexan-5-yl}-2-ethylpyridin-3-yl)methyl]-N-[(4R)-1-methyl-1H,4H,5H,6H-cyclopenta[d]imidazol-4-yl]-1H-pyrazole-4-carboxamide]	> 10 µM	213 nM	1 nM
Cn1cnc2c1CC[C@H]2NC(=O)c1cnn(Cc2ccc(N3CC4(CC4)C3)nc2C(F)F)c1 [Example 52, 1-[(6-{5-Azaspiro[2.3]hexan-5-yl}-2-(difluoromethyl)-pyridin-3-yl)methyl]-N-[(4R)-1-methyl-1H,4H,5H,6H-cyclopenta[d]imidazol-4-yl]-1H-pyrazole-4-carboxamide]	> 10 µM	155 nM	1.1 nM
Cc1cc(N2CC3CC3C2)ncc1Cn1cc(C(=O)N[C@@H]2CCc3c2ncn3C)cn1 (stereo partly drawn) [Example 113, 1-[(6-{3-Azabicyclo[3.1.0]hexan-3-yl}-4-methylpyridin-3-yl)methyl]-N-[(4R)-1-methyl-1H,4H,5H,6H-cyclopenta[d]imidazol-4-yl]-1H-pyrazole-4-carboxamide]	> 10 µM	–	9.9 nM
Cn1cnc2c1CC[C@H]2NC(=O)c1cn(Cc2cnc(N3CC4CC4C3)nc2CO)cn1 (stereo partly drawn) [Example 214, 1-[(2-{3-Azabicyclo[3.1.0]hexan-3-yl}-4-(hydroxymethyl)pyrimidin-5-yl)methyl]-N-[(4R)-1-methyl-1H,4H,5H,6H-cyclopenta[d]imidazol-4-yl]-1H-imidazole-4-carboxamide]	–	1040 nM	20.3 nM
Cc1nc(N2CC3CC3C2)ccc1Cn1cc(C(=O)N[C@@H]2CCc3c2ncn3C)c(CCO)n1 (stereo partly drawn) [Example 216, 1-[(6-{3-Azabicyclo[3.1.0]hexan-3-yl}-2-methylpyridin-3-yl)methyl]-3-(2-hydroxyethyl)-N-[(4R)-1-methyl-1H,4H,5H,6H-cyclopenta[d]imidazol-4-yl]-1H-pyrazole-4-carboxamide]	–	> 10000 nM	1.2 nM
COCc1nc(N2CC3CC3C2)ccc1Cc1cc(C(=O)N[C@@H]2CCc3c2ncn3C)[nH]n1 (stereo partly drawn) [Example 219, 3-[(6-{3-Azabicyclo[3.1.0]hexan-3-yl}-2-(methoxymethyl)pyridin-3-yl)methyl]-N-[(4R)-1-methyl-1H,4H,5H,6H-cyclopenta[d]imidazol-4-yl]-1H-pyrazole-5-carboxamide]	–	776 nM	3.6 nM
Cn1cnc2c1CC[C@H]2NC(=O)c1cc(Cc2ccc(N3CC4CC4C3)nc2CO)n[nH]1 (stereo partly drawn) [Example 220, 3-[(6-{3-Azabicyclo[3.1.0]hexan-3-yl}-2-(hydroxymethyl)pyridin-3-yl)methyl]-N-[(4R)-1-methyl-1H,4H,5H,6H-cyclopenta[d]imidazol-4-yl]-1H-pyrazole-5-carboxamide]	–	525 nM	1.9 nM
Cc1nc(N2CC3(CC3)C2)ncc1Cn1cc(C(=O)N[C@@H]2CCc3c2ncn3C)cn1 [Example 222, 1-[(2-{5-Azaspiro[2.3]hexan-5-yl}-4-methylpyrimidin-5-yl)methyl]-N-[(4R)-1-methyl-1H,4H,5H,6H-cyclopenta[d]imidazol-4-yl]-1H-pyrazole-4-carboxamide]	7.28 µM	–	11.6 nM

Now those with a lower IC50 [3], led by results:

Ki [1]	IC50 [2]	IC50 [3]	SMILES
> 10 µM	184 nM	0.9 nM	Cn1cnc2c1CC[C@H]2NC(=O)c1cn(Cc2ccc(N3CC4(CC4)C3)nc2C(F)F)nn1 [Example 4, 1-[(6-{5-Azaspiro[2.3]hexan-5-yl}-2-(difluoromethyl)-pyridin-3-yl)methyl]-N-[(4R)-1-methyl-1H,4H,5H,6H-cyclo-penta[d]imidazol-4-yl]-1H-1,2,3-triazole-4-carboxamide]
> 10 µM	202 nM	0.9 nM	Cc1nc(N2CC3C(C2)C3(F)F)ccc1Cn1cc(C(=O)N[C@@H]2CCc3c2ncn3C)nn1 (stereo partly drawn) [Example 27, 1-[(6-{6,6-Difluoro-3-azabicyclo[3.1.0]hexan-3-yl}-2-methylpyridin-3-yl)methyl]-N-[(4R)-1-methyl-1H,4H,5H,6H-cyclopenta[d]imidazol-4-yl]-1H-1,2,3-triazole-4-carboxamide]
> 10 µM	173 nM	0.8 nM	Cn1cnc2c1CC[C@H]2NC(=O)c1cn(Cc2ccc(N3CC4(CC4)C3)nc2C(F)F)cn1 [Example 47, 1-[(6-{5-Azaspiro[2.3]hexan-5-yl}-2-(difluoromethyl)-pyridin-3-yl)methyl]-N-[(4R)-1-methyl-1H,4H,5H,6H-cyclopenta[d]imidazol-4-yl]-1H-imidazole-4-carboxamide]
> 10 µM	99 nM	0.7 nM	CCc1nc(N2CC3(CC3)C2)ccc1Cn1cc(C(=O)N[C@@H]2CCc3c2ncn3C)nn1 [Example 20, 1-[(6-{5-Azaspiro[2.3]hexan-5-yl}-2-ethylpyridin-3-yl)methyl]-N-[(4R)-1-methyl-1H,4H,5H,6H-cyclo-penta[d]imidazol-4-yl]-1H-1,2,3-triazole-4-carboxamide]
–	194 nM	0.7 nM	CC(O)c1nc(N2CC3C(C2)C3(F)F)ccc1Cn1cc(C(=O)N[C@@H]2CCc3c2ncn3C)nn1 (stereo partly drawn) [Example 215, 1-[(6-{6,6-Difluoro-3-azabicyclo[3.1.0]hexan-3-yl}-2-(1-hydroxyethyl)pyridin-3-yl)methyl]-N-[(4R)-1-methyl-1H,4H,5H,6H-cyclopenta[d]imidazol-4-yl]-1H-1,2,3-triazole-4-carboxamide]
> 10 µM	280 nM	0.6 nM	Cn1cnc2c1CC[C@H]2NC(=O)c1cn(Cc2ccc(N3CC4(CC4)C3)nc2Br)cn1 [Example 16, 1-[(6-{5-Azaspiro[2.3]hexan-5-yl}-2-bromopyridin-3-yl)methyl]-N-[(4R)-1-methyl-1H,4H,5H,6H-cyclopenta[d]imidazol-4-yl]-1H-imidazole-4-carboxamide]
> 10 µM	249 nM	0.5 nM	CCc1nc(N2CC3CC3C2)ccc1Cn1cc(C(=O)N[C@@H]2CCc3c2ncn3C)cn1 (stereo partly drawn) [Example 22, 1-[(6-{3-Azabicyclo[3.1.0]hexan-3-yl}-2-ethylpyridin-3-yl)methyl]-N-[(4R)-1-methyl-1H,4H,5H,6H-cyclopenta[d]imidazol-4-yl]-1H-pyrazole-4-carboxamide]
> 10 µM	180 nM	0.5 nM	CCc1nc(N2CC3C(C2)C3(F)F)ccc1Cn1cc(C(=O)N[C@@H]2CCc3c2ncn3C)cn1 (stereo partly drawn) [Example 36, 1-[(6-{6,6-Difluoro-3-azabicyclo[3.1.0]hexan-3-yl}-2-ethylpyridin-3-yl)methyl]-N-[(4R)-1-methyl-1H,4H,5H,6H-cyclopenta[d]imidazol-4-yl]-1H-pyrazole-4-carboxamide]
> 10 µM	192 nM	0.5 nM	CCc1nc(N2CC3CC3C2)ccc1Cn1cnc(C(=O)N[C@@H]2CCc3c2ncn3C)c1 (stereo partly drawn) [Example 75, 1-[(6-{3-Azabicyclo[3.1.0]hexan-3-yl}-2-ethylpyridin-3-yl)methyl]-N-[(4R)-1-methyl-1H,4H,5H,6H-cyclopenta[d]imidazol-4-yl]-1H-imidazole-4-carboxamide]
